Results as given in PMC12888920, “MMP-9 regulates disulphide isomerase activity of TGM2 to enhance fusion glycoprotein-mediated syncytium formation of respiratory syncytial virus” (Protein & Cell, 2025).
Values belong to the molecule of their own block, whether it stands above or below them.

Legend:
[1] = Cell viability assay (CellTiter-Glo) in HEp-2 cells; format: cell-based; details: human
Experimental: (§1) Figure 7. MMP-9-mediated TGM2 cleavage potentiates RSV–host interaction. (A) Cytotoxicity profiling. Dose-response curves of TGM2 inhibitors (ZED-1227, Cystamine, Bacitracin, E64FC26, ML359) in HEp-2 cells (72 h treatment). Viability was assessed by CellTiter-Glo assay. Data normalized to untreated controls. mean ± SD, n = 3. (B) Antiviral efficacy. Viral inhibition (FFA) in RSV A2-infected HEp-2 cells treated with TGM2 inhibitors at threefold dilution gradients: ZED-1227 (60–10 µmol/L), Cystamine (200–22.2 µmol/L), Bacitracin (500–50 µmol/L), E64FC26 (0.2–0.05 µmol/L), and ML359 (10–1.1 µmol/L). DMSO as vehicle control. mean ± SD, n = 3. (C) TGM2–F protein interaction. Co-IP analysis in HEK293T cells co-expressing TGM2 and RSV F (48 h). Immunoblots were probed with anti-TGM2, anti-F, or IgG control. Blots represent three independent experiments. (D) Binding kinetics. BLI quantification of TGM2–DS-Cav1 (RSV F prefusion conformation) interaction. The results represent three biological replicates. (E) Ternary complex formation. Co-IP of MMP-9-TGM2-F complex in HEK293T cells (48 h). GAPDH as loading control. Below the asterisk represents the objective band. Blots represent three independent experiments. (F) Impairing MMP-9/TGM2/RSV-F complex inhibits RSV infection. […] (G) Proteolytic enhancement. MMP-9-cleaved TGM2 (TGM2-44) enhances protein disulfide isomerase (PDI) activity was measured using reduced DS-Cav1. mean ± SD, n = 3. (H) Truncation functional analysis. Viral titers (FFA) in HEp-2 cells expressing MMP-9, TGM2, or cleavage fragments (TGM2-44/41) post RSV infection (MOI = 1, 72 hpi). mean ± SD, n = 3. (I) Syncytium rescue. Syncytia area quantification in TGM2 truncation-expressing cells (ImageJ software). mean ± SD, n = 3. (J) Subcellular redistribution. Confocal microscopy of HEp-2 cells co-expressing TGM2 truncations (HA/FLAG-tagged) and RSV F (72 hpi). Scale bar: 10 µm. Images represent three biological replicates. (K) F protein expression. Fluorescence intensity quantification of RSV F in (J) (ImageJ software). mean ± SD, n = 3. (L) Fusion competence assay. Syncytium formation in HEK293T cells co-expressing TGM2 truncations and RSV F/F-C37S/C69S mutants (48 h). Scale bar: 10 µm. Images represent three biological replicates. (M) Mutant validation. RSV F expression levels in (L) were quantified by ImageJ software. mean ± SD, n = 3. The results are representatively shown with three random experiments. The error bars indicate the mean ± SD of three technical replicates (n = 3). […]
(§2) (B-C) Cytotoxicity profiles in HEp-2 (B) and HBEC (C) cells. […] Viability was assessed using the CellTiter-Glo assay (G7570, Promega). […]
(§3) 95 Cell viability was evaluated using a CellTiter -Glo® Luminescent Cell Viability Assay 96 kit (G7571, Promega) according to the manufacturer’s instructions. […]

[2] = system: RSV A2; assay: Viral inhibition (FFA) in RSV A2-infected HEp-2 cells treated with TGM2 inhibitors; format: cell-based, Respiratory syncytial virus; details: HEp-2, RSV A2; ZED-1227 60–10, Cystamine 200–22.2, Bacitracin 500–50, E64FC26 0.2–0.05, ML359 10–1.1 µmol/L
Experimental: Figure 7. MMP-9-mediated TGM2 cleavage potentiates RSV–host interaction. (A) Cytotoxicity profiling. Dose-response curves of TGM2 inhibitors (ZED-1227, Cystamine, Bacitracin, E64FC26, ML359) in HEp-2 cells (72 h treatment). Viability was assessed by CellTiter-Glo assay. Data normalized to untreated controls. mean ± SD, n = 3. (B) Antiviral efficacy. Viral inhibition (FFA) in RSV A2-infected HEp-2 cells treated with TGM2 inhibitors at threefold dilution gradients: ZED-1227 (60–10 µmol/L), Cystamine (200–22.2 µmol/L), Bacitracin (500–50 µmol/L), E64FC26 (0.2–0.05 µmol/L), and ML359 (10–1.1 µmol/L). DMSO as vehicle control. mean ± SD, n = 3. (C) TGM2–F protein interaction. Co-IP analysis in HEK293T cells co-expressing TGM2 and RSV F (48 h). Immunoblots were probed with anti-TGM2, anti-F, or IgG control. Blots represent three independent experiments. (D) Binding kinetics. BLI quantification of TGM2–DS-Cav1 (RSV F prefusion conformation) interaction. The results represent three biological replicates. (E) Ternary complex formation. Co-IP of MMP-9-TGM2-F complex in HEK293T cells (48 h). GAPDH as loading control. Below the asterisk represents the objective band. Blots represent three independent experiments. (F) Impairing MMP-9/TGM2/RSV-F complex inhibits RSV infection. […] (G) Proteolytic enhancement. MMP-9-cleaved TGM2 (TGM2-44) enhances protein disulfide isomerase (PDI) activity was measured using reduced DS-Cav1. mean ± SD, n = 3. (H) Truncation functional analysis. Viral titers (FFA) in HEp-2 cells expressing MMP-9, TGM2, or cleavage fragments (TGM2-44/41) post RSV infection (MOI = 1, 72 hpi). mean ± SD, n = 3. (I) Syncytium rescue. Syncytia area quantification in TGM2 truncation-expressing cells (ImageJ software). mean ± SD, n = 3. (J) Subcellular redistribution. Confocal microscopy of HEp-2 cells co-expressing TGM2 truncations (HA/FLAG-tagged) and RSV F (72 hpi). Scale bar: 10 µm. Images represent three biological replicates. (K) F protein expression. Fluorescence intensity quantification of RSV F in (J) (ImageJ software). mean ± SD, n = 3. (L) Fusion competence assay. Syncytium formation in HEK293T cells co-expressing TGM2 truncations and RSV F/F-C37S/C69S mutants (48 h). Scale bar: 10 µm. Images represent three biological replicates. (M) Mutant validation. RSV F expression levels in (L) were quantified by ImageJ software. mean ± SD, n = 3. The results are representatively shown with three random experiments. The error bars indicate the mean ± SD of three technical replicates (n = 3). Statistical analysis: one-way ANOVA with Dunnett’s post hoc test (B, F, G, H, I, K, M); unpaired two-tailed Student’s t-test (F, H, I, K, M). *P < 0.05, **P < 0.01, ***P < 0.001; ns, not significant.

[3] = system: RSV A2; assay: Antiviral activity (FFA) against RSV A2 in HEp-2 cells; format: cell-based; details: human respiratory syncytial virus
Text: (§4) Figure 1. Antiviral activity of metalloproteinase inhibitors against RSV in vitro. (A) Experimental workflow for RSV A2 infection and compound treatment. (B) High-throughput screening of TargetMol L1100 library (246 host protease inhibitors targeting 10 pathways: MMPs, caspases, proteasomes, apoptosis regulators, cysteine proteases, gamma-secretase, autophagy modulators, serine proteases, DPP-4, and beta-secretase) using concentration gradients (1, 5, 10 µmol/L). HEp-2 cells were pretreated with compounds for 1 hour prior to RSV A2 infection (MOI = 0.1). Plaque formation was quantified at 72 hours post-infection (hpi) and normalized to DMSO controls. […] (G) Target overlap analysis of four MMP-9-targeting inhibitors. (H) Viral titers in supernatants of HEp-2 cells transfected with MMP-specific siRNAs (24 h) followed by RSV A2 infection (MOI = 1, 72 h). mean ± SD, n = 3. The results are representatively shown with three random experiments. The error bars indicate the mean ± SD of three technical replicates (n = 3). Statistical significance was determined by one-way ANOVA with Dunnett’s post hoc test: *P < 0.05, ***P < 0.001; ns, not significant. […]
(§5) 110 overtly cytotoxic) underwent dose -response validation (0.00004 –10 μM) to generate
(§6) 111 EC50 curves (GraphPad Prism 8.0) .
(§7) 112 Evaluation of in vitro antiviral activity
(§8) 113 Compound inhibitor treatments: HEp-2 cells (1.3×10⁴/well) or HBEC (1.8×10⁴/well)
(§9) 114 were pretreated with test compounds for 1 h before RSV A2/B18537 infection
(§10) 115 (MOI=0.1 or 0.3). Viral inhibition was quantified at 72 hpi via FFA. Fixed cells (4%
(§11) 116 PFA) were permeabilized (0.3% Triton X-100), stained with anti-RSV-FITC
(§12) 118 Fluorescent foci were normalized to nuclear counts (ImageJ software) for EC 50
(§13) 119 determination via four-parameter logistic regression (GraphPad Prism 8.0). Data
(§14) 120 represent triplicate experiments. […]

[4] = system: RSV B18537; assay: Antiviral activity (FFA) against RSV B18537 in HEp-2 cells; format: cell-based; details: human respiratory syncytial virus
Text: as §4
(§15) 109 111813, MCE) and 0.1% DMSO vehicle. Primary hits (>50% CPE reduction + not
as §5, §6, §7, §8, §9, §10, §11, §12, §13, §14

[5] = system: RSV A2; assay: Antiviral activity (FFA) against RSV A2 in primary human bronchial epithelial cells (HBEC); format: cell-based; details: human respiratory syncytial virus, Epithelial cell
Text: as §4, §7, §8, §9, §10, §11, §12, §13, §14

[6] = system: RSV B18537; assay: Antiviral activity (FFA) against RSV B18537 in HBEC; format: cell-based; details: human respiratory syncytial virus
Text: as §4, §7, §8, §9, §10, §11, §12, §13, §14

[7] = system: RSV A2; assay: High-throughput antiviral screening of protease inhibitor library against RSV A2 in HEp-2 cells; format: cell-based, Respiratory syncytial virus; details: RSV A2, MOI = 0.1, 1, 5, 10 µmol/L, 72 hpi
Text: Figure 1. Antiviral activity of metalloproteinase inhibitors against RSV in vitro. (A) Experimental workflow for RSV A2 infection and compound treatment. (B) High-throughput screening of TargetMol L1100 library (246 host protease inhibitors targeting 10 pathways: MMPs, caspases, proteasomes, apoptosis regulators, cysteine proteases, gamma-secretase, autophagy modulators, serine proteases, DPP-4, and beta-secretase) using concentration gradients (1, 5, 10 µmol/L). HEp-2 cells were pretreated with compounds for 1 hour prior to RSV A2 infection (MOI = 0.1). Plaque formation was quantified at 72 hours post-infection (hpi) and normalized to DMSO controls. […] (G) Target overlap analysis of four MMP-9-targeting inhibitors. (H) Viral titers in supernatants of HEp-2 cells transfected with MMP-specific siRNAs (24 h) followed by RSV A2 infection (MOI = 1, 72 h). mean ± SD, n = 3. The results are representatively shown with three random experiments. The error bars indicate the mean ± SD of three technical replicates (n = 3). Statistical significance was determined by one-way ANOVA with Dunnett’s post hoc test: *P < 0.05, ***P < 0.001; ns, not significant.
104 High-throughput antiviral screening
105 The L1100 protease inhibitor library (246 compounds; L1100, TargetMol) was
106 screened against RSV A2 in HEp -2 cells. Compounds (10 mM DMSO stocks) were
107 robotically dispensed 1 h pre -infection at final concentrations of 1, 5, 10 μM.
108 Infection rates (72 hpi) were normalized to PC786 (1 μM; positive control; HY -
as §15, §5, §6, §7, §8, §9, §10, §11, §12, §13, §14

[8] = system: HEp-2 cells; assay: Cell viability assay (CellTiter-Glo) in HEp-2 cells; format: cell-based
Experimental: as §1, §2, §3

SMILES: NCCSSCCN [Cystamine]
- CC50 at 72 h [1]: 387000 nM
- inhibition of RSV replication (antiviral efficacy) [2]: did not inhibit RSV replication

- EC50 ([3]; HEp-2, RSV A2, MOI = 0.1, 72 hpi, read-out: EC50): 846 nM
- EC50 ([4]; HEp-2, RSV B18537, MOI = 0.1, 72 hpi, read-out: EC50): 727 nM
- EC50 ([5]; HBEC, RSV A2, MOI = 0.3, 72 hpi, read-out: EC50): 1300 nM
- EC50 ([6]; HBEC, RSV B18537, MOI = 0.3, 72 hpi, read-out: EC50): 811 nM
SMILES: C[C@H]1c2cccc(O)c2C(=O)C2=C(O)[C@]3(O)C(=O)C(C(N)=O)=C(O)[C@@H](N(C)C)[C@@H]3[C@@H](O)[C@@H]21 [Doxycycline]
- inhibition of RSV infection in HEp-2 cells [7]: significant dose-dependent inhibition

SMILES: CCCCCCCC/C=C1\C=C(C(F)(F)F)c2cc(O)c(O)cc21 [E64FC26]
- CC50 [8]: 800 nM
- inhibition of RSV replication (antiviral efficacy) [2]: strong antiviral efficacy

SMILES: CC(C)=CCc1c(O)c(CC=C(C)C)c2oc3c(O)ccc(O)c3c(=O)c2c1O [Gartanin]
- EC50 ([3]; HEp-2): 726 nM
- EC50 ([4]; HEp-2): 738 nM
- EC50 [5]: 625 nM
- EC50 [6]: 733 nM
- inhibition of RSV infection in HEp-2 cells [7]: significant dose-dependent inhibition
